Results on 20 compounds are retold here after patent US8188077B2, “Apoptosis-inducing agents for the treatment of cancer and immune and autoimmune diseases” (Abbott Laboratories, priority 2010, dated 2012).

The structures appear in SMILES notation. Where only a bound is given, the exact number is not on record here.

The target in the assay is T1, Bcl-2 protein (Homo sapiens, UniProt P10415, DELINS35-91DVEENRTEAPEGTESE, form not given).
T1 construct: fused on or other part: Bcl-xL (Q07817) residues 29-44 stand in place of Bcl-2's own unstructured loop 35-91; The C-terminal membrane anchor (208-239) is absent
The experiment in a line: Bcl-2 fluorescence polarization assay (FPA) binding. The settings on record: 10 nM Bcl-2 protein, 1 nM fluorescein-labeled BAX peptide, room temperature, read-out: Bcl-2 FPA 11pt Ki. On the procedure: Assays for the inhibition of Bcl-2 were performed in 96-well microtiter plates. Compounds of the instant invention were diluted in DMSO to concentrations between […] and 10 pM and introduced into each well of the plate. A mixture totaling 125 µL per well of assay buffer (20 mM phosphate buffer (pH 7.4), 1 mM EDTA, 0.05% PF-68), 10 nM of Bcl-2 protein (prepared according to the procedure described in PNAS 2001, 98, 3012-3017), 1 nM fluorescein-labeled BAX peptide (prepared in-house), and the DMSO solution of the compound of the instant invention was shaken for 2 minutes and placed in a LJL Analyst (LJL Bio Systems, CA. Polarization was measured at room temperature using a continuous Fluorescein lamp (excitation 485 nm, emission 530 nm). Ki values were calculated using Microsoft Excel.
On the technique in general: Polarisation of emitted light reports the rotation of a fluorescent probe.

T1 sequence (P10415 with tags, fused parts or gaps with the stated changes): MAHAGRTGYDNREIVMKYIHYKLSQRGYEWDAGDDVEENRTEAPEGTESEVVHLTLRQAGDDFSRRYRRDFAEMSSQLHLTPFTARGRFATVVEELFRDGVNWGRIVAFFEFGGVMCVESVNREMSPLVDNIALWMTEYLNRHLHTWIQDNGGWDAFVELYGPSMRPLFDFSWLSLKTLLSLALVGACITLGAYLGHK

For `O=C(NS(=O)(=O)c1ccc(NCC2CCOCC2)c([N+](=O)[O-])c1)c1ccc(N2CCN(Cc3cc([N+](=O)[O-])ccc3N3CC4CCC(CC4)C3)CC2)cc1` [Example 22, 4-{4-[2-(3-azabicyclo[3.2.2]non-3-yl)-5-nitrobenzyl]piperazin-1-yl}-N-({3-nitro-4-[(tetrahydro-2H-pyran-4-ylmethyl)amino]phenyl}sulfonyl)benzamide], the Ki was determined as 31.4 nM.
To `O=C(NS(=O)(=O)c1ccc(NCC2CCOCC2)c([N+](=O)[O-])c1)c1ccc(N2CCN(Cc3ccccc3C3=CC4CC3C3CCCC43)CC2)cc1` (centres unmarked) [Example 23, 4-(4-{2-[2,3,3a,4,7,7a-hexahydro-1H-4,7-methanoinden-5-yl]benzyl}piperazin-1-yl)-N-({3-nitro-4-[(tetrahydro-2H-pyran-4-ylmethyl)amino]phenyl}sulfonyl)benzamide] belongs < 20 nM; to `O=C(NS(=O)(=O)c1ccc(NCC2CCOCC2)c([N+](=O)[O-])c1)c1ccc(N2CCN(Cc3ccccc3-c3cn(C45CC6CC(CC(C6)C4)C5)nc3C(=O)N(c3ccccc3)c3ccccc3)CC2)cc1` [Example 24, 1-[adamantan-1-yl]-4-{2-[(4-{4-[({3-nitro-4-[(tetrahydro-2H-pyran-4-ylmethyl)amino]phenyl}sulfonyl)carbamoyl]phenyl}piperazin-1-yl)methyl]phenyl}-N,N-diphenyl-1H-pyrazole-3-carboxamide], 2270 nM; to `Cc1cc(-c2ccccc2CN2CCN(c3ccc(C(=O)NS(=O)(=O)c4ccc(NCC5CCOCC5)c([N+](=O)[O-])c4)cc3)CC2)c2nc(C34CC5CC(CC(C5)C3)C4)cn2c1` [Example 25, 4-(4-{2-[2-(adamantan-1-yl)-6-methylimidazo[1,2-a]pyridin-8-yl]benzyl}piperazin-1-yl)-N-({3-nitro-4-[(tetrahydro-2H-pyran-4-ylmethyl)amino]phenyl}sulfonyl)benzamide], 979 nM.
As for `CC1(C)[C@H]2CC=C(c3ccccc3CN3CCN(c4ccc(C(=O)NS(=O)(=O)c5ccc(NCC6CCOCC6)c([N+](=O)[O-])c5)cc4)CC3)[C@@H]1C2` [Example 27, 4-(4-{2-[(1R,5S)-6,6-dimethylbicyclo[3.1.1]hept-2-en-2-yl]benzyl}piperazin-1-yl)-N-({3-nitro-4-[(tetrahydro-2H-pyran-4-ylmethyl)amino]phenyl}sulfonyl)benzamide], the Ki turned out to be 27.1 nM.
To `CC1C2CC(C=C2c2ccccc2CN2CCN(c3ccc(C(=O)NS(=O)(=O)c4ccc(NCC5CCOCC5)c([N+](=O)[O-])c4)cc3)CC2)C1(C)C` (centres unmarked) [Example 28, N-({3-nitro-4-[(tetrahydro-2H-pyran-4-ylmethyl)amino]phenyl}sulfonyl)-4-(4-{2-[5,5,6-trimethylbicyclo[2.2.1]hept-2-en-2-yl]benzyl}piperazin-1-yl)benzamide] belongs 29.6 nM.
Take `O=C(NS(=O)(=O)c1ccc(NCC2CCOCC2)c([N+](=O)[O-])c1)c1ccc(N2CCN(Cc3ccccc3-c3ccc(C(=O)NC4CCCCCCC4)o3)CC2)cc1` [Example 29, N-cyclooctyl-5-{2-[(4-{4-[({3-nitro-4-[(tetrahydro-2H-pyran-4-ylmethyl)amino]phenyl}sulfonyl)carbamoyl]phenyl}piperazin-1-yl)methyl]phenyl}-2-furamide]: the Ki is 354 nM.
Under `CC1(C)C2C=C(c3ccccc3CN3CCN(c4ccc(C(=O)NS(=O)(=O)c5ccc(NCC6CCOCC6)c([N+](=O)[O-])c5)cc4)CC3)C1(C(=O)NCc1ccccc1)CC2` (centres unmarked) [Example 30, N-benzyl-7,7-dimethyl-2-{2-[(4-{4-[({3-nitro-4-[(tetrahydro-2H-pyran-4-ylmethyl)amino]phenyl}sulfonyl)carbamoyl]phenyl}piperazin-1-yl)methyl]phenyl}bicyclo[2.2.1]hept-2-ene-1-carboxamide] stands 295 nM.
Under `CN1[C@@H]2CC[C@H]1CC(Nc1ccccc1CN1CCN(c3ccc(C(=O)NS(=O)(=O)c4ccc(NCC5CCOCC5)c([N+](=O)[O-])c4)cc3)CC1)C2` (stereo partly drawn) [Example 31, 4-[4-(2-{[(1R,5S)-8-methyl-8-azabicyclo[3.2.1]oct-3-yl]amino}benzyl)piperazin-1-yl]-N-({3-nitro-4-[(tetrahydro-2H-pyran-4-ylmethyl)amino]phenyl}sulfonyl)benzamide] stands 31.9 nM.
In the case of `C[C@@H]1[C@@H](Nc2ccccc2CN2CCN(c3ccc(C(=O)NS(=O)(=O)c4ccc(NCC5CCOCC5)c([N+](=O)[O-])c4)cc3)CC2)C[C@@H]2C[C@H]1C2(C)C` [Example 32, N-({3-nitro-4-[(tetrahydro-2H-pyran-4-ylmethyl)amino]phenyl}sulfonyl)-4-[4-(2-{[(1R,2S,3S,5S)-2,6,6-trimethylbicyclo[3.1.1]hept-3-yl]amino}benzyl)piperazin-1-yl]benzamide], the Ki was found to be 91.9 nM.
With `O=C(NS(=O)(=O)c1ccc(NCC2CCOCC2)c([N+](=O)[O-])c1)c1ccc(N2CCN(Cc3ccccc3N3CC4CCC(CC4)C3)CC2)cc1` [Example 33, 4-(4-{2-[3-azabicyclo[3.2.2]non-3-yl]benzyl}piperazin-1-yl)-N-({3-nitro-4-[(tetrahydro-2H-pyran-4-ylmethyl)amino]phenyl}sulfonyl)benzamide], the Ki was < 20 nM.
Under `O=C(NS(=O)(=O)c1ccc(NCC2CCOCC2)c([N+](=O)[O-])c1)c1ccc(N2CCN(Cc3ccccc3C3=CC4CC5CC(C4)CC3C5)CC2)cc1` [Example 34, N-({3-nitro-4-[(tetrahydro-2H-pyran-4-ylmethyl)amino]phenyl}sulfonyl)-4-(4-{2-[tricyclo[4.3.1.1^3,8]undec-4-en-4-yl]benzyl}piperazin-1-yl)benzamide] stands 47.7 nM; under `CC1(C)C2C=C(c3ccccc3CN3CCN(c4ccc(C(=O)NS(=O)(=O)c5ccc(NCC6CCOCC6)c([N+](=O)[O-])c5)cc4)CC3)C1(C(=O)Nc1ccccc1)CC2` (centres unmarked) [Example 35, 7,7-dimethyl-2-{2-[(4-{4-[({3-nitro-4-[(tetrahydro-2H-pyran-4-ylmethyl)amino]phenyl}sulfonyl)carbamoyl]phenyl}piperazin-1-yl)methyl]phenyl}-N-phenylbicyclo[2.2.1]hept-2-ene-1-carboxamide], 21.7 nM.
Under `C[C@@H]1[C@@H](NC(=O)C23CCC(C=C2c2ccccc2CN2CCN(c4ccc(C(=O)NS(=O)(=O)c5ccc(NCC6CCOCC6)c([N+](=O)[O-])c5)cc4)CC2)C3(C)C)C[C@H]2C[C@@H]1C2(C)C` [Example 36, 7,7-dimethyl-2-{2-[(4-{4-[({3-nitro-4-[(tetrahydro-2H-pyran-4-ylmethyl)amino]phenyl}sulfonyl)carbamoyl]phenyl}piperazin-1-yl)methyl]phenyl}-N-[(1S,2S,3S,5R)-2,6,6-trimethylbicyclo[3.1.1]hept-3-yl]bicyclo[2.2.1]hept-2-ene-1-carboxamide] stands 121 nM.
As to `CC1(C)C2C=C(c3ccccc3CN3CCN(c4ccc(C(=O)NS(=O)(=O)c5ccc(NCC6CCOCC6)c([N+](=O)[O-])c5)cc4)CC3)C1(C(=O)NCC13CC4CC(CC(C4)C1)C3)CC2` (centres unmarked) [Example 37, N-(adamantan-1-ylmethyl)-7,7-dimethyl-2-{2-[(4-{4-[({3-nitro-4-[(tetrahydro-2H-pyran-4-ylmethyl)amino]phenyl}sulfonyl)carbamoyl]phenyl}piperazin-1-yl)methyl]phenyl}bicyclo[2.2.1]hept-2-ene-1-carboxamide], the Ki amounted to 165 nM.
For `CC1(C)C2C=C(c3ccccc3CN3CCN(c4ccc(C(=O)NS(=O)(=O)c5ccc(NCC6CCOCC6)c([N+](=O)[O-])c5)cc4)CC3)C1(C(=O)NC1CC1)CC2` (centres unmarked) [Example 38, N-cyclopropyl-7,7-dimethyl-2-{2-[(4-{4-[({3-nitro-4-[(tetrahydro-2H-pyran-4-ylmethyl)amino]phenyl}sulfonyl)carbamoyl]phenyl}piperazin-1-yl)methyl]phenyl}bicyclo[2.2.1]hept-2-ene-1-carboxamide], the inhibition constant Ki was determined as 149 nM.
Under `CC1(C)C2C=C(c3ccccc3CN3CCN(c4ccc(C(=O)NS(=O)(=O)c5ccc(NCC6CCOCC6)c([N+](=O)[O-])c5)cc4)CC3)C1(C(=O)O)CC2` (centres unmarked) [Example 39, 7,7-dimethyl-2-{2-[(4-{4-[({3-nitro-4-[(tetrahydro-2H-pyran-4-ylmethyl)amino]phenyl}sulfonyl)carbamoyl]phenyl}piperazin-1-yl)methyl]phenyl}bicyclo[2.2.1]hept-2-ene-1-carboxylic Acid] stands 2910 nM; under `O=C(NS(=O)(=O)c1ccc(NCC2CCOCC2)c([N+](=O)[O-])c1)c1ccc(N2CCN(Cc3ccccc3-c3ccc(CN4C5CCCC4CC5)s3)CC2)cc1` [Example 40, 4-[4-(2-{5-[8-azabicyclo[3.2.1]oct-8-ylmethyl]-2-thienyl}benzyl)piperazin-1-yl]-N-({3-nitro-4-[(tetrahydro-2H-pyran-4-ylmethyl)amino]phenyl}sulfonyl)benzamide], 54.7 nM; under `O=C(NS(=O)(=O)c1ccc(NC2CCOCC2)c([N+](=O)[O-])c1)c1ccc(N2CCN(C(=O)C34CC5CC(CC(C5)C3)C4)CC2)cc1` [Example 41, 4-{4-[adamantan-1-ylcarbonyl]piperazin-1-yl}-N-{[3-nitro-4-(tetrahydro-2H-pyran-4-ylamino)phenyl]sulfonyl}benzamide], 5190 nM.
Consider `O=C(NS(=O)(=O)c1ccc(NC2CCOCC2)c([N+](=O)[O-])c1)c1ccc(N2CCN(C(=O)C3C4CC5CC(C4)CC3C5)CC2)cc1` (centres unmarked) [Example 42, 4-{4-[adamantan-2-ylcarbonyl]piperazin-1-yl}-N-{[3-nitro-4-(tetrahydro-2H-pyran-4-ylamino)phenyl]sulfonyl}benzamide], for which the Ki was determined as 2480 nM.

The term Ki denotes a measure of affinity in units of concentration, obtained from inhibition or displacement.
